Data from patent US6689817B1, “Process for preparing guaifenesin tannate” (Jame Fine Chemicals, Inc., priority 2001, dated 2004).
Like-named read-outs stand apart in the source and are kept apart here.

What was measured:
[1] = Solubility in water and organic solvents (descriptive)
[2] = background statement, cited from earlier work; for solubility in alcohols: alcohols such as methanol, ethanol, isopropanol
[3] = Methylene chloride solubility test of milled guaifenesin tannate powders (Example 4); type: physicochemical
Protocol: Two gram samples of finely milled guaifenesin tannate powders were taken from each of the products prepared in Examples 1-3. Each sample was mixed with 110 g of methylene chloride and was stirred for 10 minutes at ambient temperature. Each mixture was then filtered. The insoluble material was dried and weighed and the filtrate was evaporated to dryness and the residue was weighed The results were as follows: […]

Compound	solubility in alcohols [1]	solubility in methylene chloride [1]	solubility in toluene [1]	solubility in water [1]	Insoluble Ppt. [3] [g]	Soluble Ppt. [3] [mg]	solubility in alcohols [2]	solubility in water [2]	also measured
guaifenesin tannate									solubility in methylene chloride (conclusion from Example 4) [3]: insoluble
guaifenesin tannate [Example 1]									Insoluble Ppt. ([3]; 2 g sample mixed with 110 g methylene chloride, stirred 10 minutes at ambient temperature, filtered, insoluble material dried and weighed): 1.94 g; Soluble Ppt. ([3]; 2 g sample mixed with 110 g methylene chloride, stirred 10 minutes at ambient temperature, filtrate evaporated to dryness, residue weighed): <8 mg
guaifenesin tannate [Example 2]					1.95	<10			
guaifenesin tannate [Example 3]					1.945	<7			

Further lines, with some results ahead:

solubility in alcohols [1]	solubility in methylene chloride [1]	solubility in toluene [1]	solubility in water [1]	Insoluble Ppt. [3] [g]	Soluble Ppt. [3] [mg]	Compound	solubility in alcohols [2]	solubility in water [2]	also measured
soluble	soluble	sparingly soluble	soluble			COc1ccccc1OCC(O)CO (centres unmarked) [guaifenesin, 3-(2-methoxyphenoxy)-1,2-propanediol]	readily soluble	about 5 wt. %	
soluble	insoluble	insoluble	soluble			O=C(OC[C@H]1O[C@@H](OC(=O)c2cc(O)c(O)c(OC(=O)c3cc(O)c(O)c(O)c3)c2)[C@H](OC(=O)c2cc(O)c(O)c(OC(=O)c3cc(O)c(O)c(O)c3)c2)[C@@H](OC(=O)c2cc(O)c(O)c(OC(=O)c3cc(O)c(O)c(O)c3)c2)[C@@H]1OC(=O)c1cc(O)c(O)c(OC(=O)c2cc(O)c(O)c(O)c2)c1)c1cc(O)c(O)c(OC(=O)c2cc(O)c(O)c(O)c2)c1 [tannic acid]	highly soluble	highly soluble	solubility in chloroform ([1]; chloroform): insoluble
